Data published in ChEMBL document CHEMBL5131388, “Discovery of novel brain-penetrant GluN2B NMDAR antagonists via pharmacophore-merging strategy as anti-stroke therapeutic agents” (Eur J Med Chem, 2022).

Experiments:
[1] = target: Ionotropic glutamate receptor NMDA 1/2C (Homo sapiens) (UniProt Q05586+Q14957); test: Antagonist activity at GluN1/GluN2C NMDA receptor (unknown origin) transfected in HEK293 cells assessed as inhibition of glycine induced current response at 10 uM in presence of L-glutamate by patch-clamp method; type: cell-based
[2] = target: Ionotropic glutamate receptor NMDA 1/2D (Homo sapiens) (UniProt Q05586+O15399); test: Antagonist activity at GluN1/GluN2D NMDA receptor (unknown origin) transfected in HEK293 cells assessed as inhibition of glycine induced current response at 10 uM in presence of L-glutamate by patch-clamp method; type: cell-based
[3] = target: Glutamate NMDA receptor; GRIN1/GRIN2A (Homo sapiens) (UniProt Q05586+Q12879); test: Antagonist activity at GluN1/GluN2A NMDA receptor (unknown origin) transfected in HEK293 cells assessed as inhibition of glycine induced current response at 10 uM in presence of L-glutamate by patch-clamp method; type: cell-based
[4] = target: Glutamate NMDA receptor; GRIN1/GRIN2B (Homo sapiens) (UniProt Q05586+Q13224); test: Antagonist activity at GluN1/GluN2B NMDA receptor (unknown origin) transfected in HEK293 cells assessed as inhibition of glycine induced current response at 10 uM in presence of L-glutamate by patch-clamp method; type: cell-based; conditions: filed as antagonist
Rattus norvegicus [5] = test: Neuroprotective activity in Sprague-Dawley rat model of middle cerebral artery occlusion-induced ischemia-reperfusion injury assessed as decrease in neurological score at 20 mg/kg, po measured 24 hrs post injury by TTC staining based histological analysis; type: functional
[6] = Neuroprotective activity against NMDA-induced neurotoxicity in Sprague-Dawley rat hippocampal neurons assessed as increase in cell viability at 10 uM incubated for 18 hrs followed by NMDA addition and measured after 0.5 hrs by MTT assay; type: functional, Hippocampal neurone; conditions: time 18.5 hrs
Glutamate NMDA receptor = test: Displacement of [3H] ifenprodil from Wistar rat glutamate NMDA receptor incubated for 2 hrs by scintillation counting method; type: protein-complex assay
[7] = Neuroprotective activity against NMDA-induced neurotoxicity in Sprague-Dawley rat hippocampal neurons assessed as increase in cell viability at 1 uM incubated for 18 hrs followed by NMDA addition and measured after 0.5 hrs by MTT assay; type: functional, Hippocampal neurone; conditions: time 18.5 hrs
Rattus norvegicus [8] = test: Neuroprotective activity in Sprague-Dawley rat model of middle cerebral artery occlusion-induced ischemia-reperfusion injury assessed as decrease in cerebral infarction rate at 20 mg/kg, po measured 24 hrs post injury by TTC staining based histological analysis; type: functional; set-up: scale not given: the % may be the effect or the level left
[9] = Neuroprotective activity against NMDA-induced neurotoxicity in Sprague-Dawley rat hippocampal neurons assessed as increase in cell viability at 0.1 uM incubated for 18 hrs followed by NMDA addition and measured after 0.5 hrs by MTT assay; type: functional, Hippocampal neurone; conditions: time 18.5 hrs
[10] = Toxicity in Sprague-Dawley rat assessed as animal death at 300 mg/kg, po administered as repeated dose once daily for 2 weeks; type: organism-based; conditions: in vivo, 336 h
[11] = Toxicity in Sprague-Dawley rat assessed as change in ALT level at 150 to 300 mg/kg, po administered as repeated dose once daily for 2 weeks; type: organism-based; conditions: in vivo, 336 h, dose 150-300 mg/kg
[12] = Cmax in Sprague-Dawley rat at 2.5 mg/kg, iv measured up to 24 hrs by LC/MS-MS analysis; type: ADME, organism-based; set-up: dose 2.5 mg/kg, time < 24 hrs, route iv; conditions: in vivo
[13] = Ratio AUClast in Sprague-Dawley rat brain to plasma at 10 mg/kg, po measured up to 24 hrs by LC/MS-MS analysis; type: ADME, organism-based; conditions: brain and plasma
[14] = Ratio AUClast in Sprague-Dawley rat brain to plasma at 2.5 mg/kg, iv measured up to 24 hrs by LC/MS-MS analysis; type: ADME, organism-based; conditions: brain and plasma
[15] = Toxicity in Sprague-Dawley rat assessed as change in blood pressure at 150 to 300 mg/kg, po administered as repeated dose once daily for 2 weeks; type: organism-based; conditions: in vivo, 336 h, dose 150-300 mg/kg
[16] = MRTinf in Sprague-Dawley rat at 2.5 mg/kg, iv measured up to 24 hrs by LC/MS-MS analysis; type: ADME, organism-based; conditions: in vivo
[17] = Toxicity in Sprague-Dawley rat assessed as change in kidney/brain index at 150 to 300 mg/kg, po administered as repeated dose once daily for 2 weeks; type: organism-based; conditions: in vivo, 336 h, dose 150-300 mg/kg
[18] = MRTinf in Sprague-Dawley rat at 10 mg/kg, po measured up to 24 hrs by LC/MS-MS analysis; type: ADME, organism-based; conditions: in vivo
[19] = Toxicity in Sprague-Dawley rat assessed as change in AST level at 150 to 300 mg/kg, po administered as repeated dose once daily for 2 weeks; type: organism-based; conditions: in vivo, 336 h, dose 150-300 mg/kg
[20] = Bioavailability in Sprague-Dawley rat at 2.5 mg/kg, iv measured up to 24 hrs by LC/MS-MS analysis; type: ADME, organism-based; conditions: in vivo
[21] = AUCinf in Sprague-Dawley rat at 10 mg/kg, po measured up to 24 hrs by LC/MS-MS analysis; type: ADME, organism-based; set-up: time < 24 hrs, dose 10 mg/kg, route po; conditions: in vivo
[22] = Toxicity in Sprague-Dawley rat assessed as increase in AST level at 300 mg/kg, po administered as repeated dose once daily for 2 weeks; type: organism-based; conditions: in vivo, 336 h
[23] = Tmax in Sprague-Dawley rat at 2.5 mg/kg, iv measured up to 24 hrs by LC/MS-MS analysis; type: ADME, organism-based; conditions: in vivo
[24] = Cmax in Sprague-Dawley rat at 10 mg/kg, po measured up to 24 hrs by LC/MS-MS analysis; type: ADME, organism-based; set-up: dose 10 mg/kg, time < 24 hrs, route po; conditions: in vivo
[25] = Tmax in Sprague-Dawley rat at 10 mg/kg, po measured up to 24 hrs by LC/MS-MS analysis; type: ADME, organism-based; conditions: in vivo
[26] = AUClast in Sprague-Dawley rat at 10 mg/kg, po measured up to 24 hrs by LC/MS-MS analysis; type: ADME, organism-based; set-up: dose 10 mg/kg, time < 24 hrs, route po; conditions: in vivo
[27] = Clearance in Sprague-Dawley rat at 2.5 mg/kg, iv measured up to 24 hrs by LC/MS-MS analysis; type: ADME, organism-based; conditions: in vivo
[28] = Half life in Sprague-Dawley rat at 2.5 mg/kg, iv measured up to 24 hrs by LC/MS-MS analysis; type: ADME, organism-based; conditions: in vivo
[29] = AUCinf in Sprague-Dawley rat at 2.5 mg/kg, iv measured up to 24 hrs by LC/MS-MS analysis; type: ADME, organism-based; set-up: dose 2.5 mg/kg, time < 24 hrs, route iv; conditions: in vivo
[30] = Half life in Sprague-Dawley rat at 10 mg/kg, po measured up to 24 hrs by LC/MS-MS analysis; type: ADME, organism-based; conditions: in vivo
[31] = Toxicity in Sprague-Dawley rat assessed as change in liver/brain index at 150 to 300 mg/kg, po administered as repeated dose once daily for 2 weeks; type: organism-based; conditions: in vivo, 336 h, dose 150-300 mg/kg
[32] = Toxicity in Sprague-Dawley rat assessed as change in spleen/brain index at 150 to 300 mg/kg, po administered as repeated dose once daily for 2 weeks; type: organism-based; conditions: in vivo, 336 h, dose 150-300 mg/kg
[33] = Toxicity in Sprague-Dawley rat assessed as body weight loss at 300 mg/kg, po administered as repeated dose once daily for 2 weeks; type: organism-based; conditions: in vivo, 336 h
[34] = AUClast in Sprague-Dawley rat at 2.5 mg/kg, iv measured up to 24 hrs by LC/MS-MS analysis; type: ADME, organism-based; set-up: dose 2.5 mg/kg, time < 24 hrs, route iv; conditions: in vivo
[35] = Toxicity in Sprague-Dawley rat assessed as change in blood glucose level at 150 to 300 mg/kg, po administered as repeated dose once daily for 2 weeks; type: organism-based; conditions: in vivo, 336 h, dose 150-300 mg/kg
[36] = Toxicity in Sprague-Dawley rat assessed as change in white blood cell count at 150 to 300 mg/kg, po administered as repeated dose once daily for 2 weeks; type: organism-based; conditions: in vivo, 336 h, dose 150-300 mg/kg

Compound O=C1OC(CCCN2CCN(Cc3ccc(C(F)(F)F)cc3)CC2)c2ccccc21 (single isomer, unassigned; enantiomer B) has an inhibition [1] of 16.2%, an inhibition [2] of 20.3% and an inhibition [3] of 25.9%. For the same compound, the inhibition [4] was 81%.

Compound CCCCC1OC(=O)c2ccccc21 (stereo not drawn) [RAC-3-N-BUTYLPHTHALIDE] has an Activity (Rattus norvegicus [5]) of 2.13, an Activity [6] of 73.45% and a Ki (Glutamate NMDA receptor) of 14.8 nM. The Activity [7] was 57.94%, the Activity (Rattus norvegicus [8]) was 18.81% and the Activity [9] was 55.71%.

O=C1OC(CCCN2CCN(Cc3ccc(C(F)(F)F)cc3)CC2)c2ccccc21 (single isomer, unassigned; enantiomer A) showed an inhibition [1] of 14.9%, an inhibition [2] of 16.7% and an inhibition [3] of 23.4%. It also gave an inhibition [4] of 71.9%.

With O=C1OC(CCCN2CCN(Cc3ccccc3)CC2)c2ccccc21 (stereo unspecified) the Activity [6] was 81.91%, the Ki (Glutamate NMDA receptor) was 13.6 nM and the Activity [7] was 79.85%. It also gave an Activity [9] of 67.64%.

With O=C1OC(CCCN2CCN(Cc3ccc(C(F)(F)F)cc3)CC2)c2ccccc21 (racemic) [listing 1 of 2 here] the Activity [10] was “Non-Toxic”, the Activity [11] was “Non-Toxic” and the Cmax [12] was 2360 ng/mL. For the same compound, the Kp at 24 h [13] was 0.85, the Kp at 24 h [14] was 0.71 and the Activity [15] was “Non-Toxic”. The MRT inf [16] was 1.68 h, the Activity (Rattus norvegicus [5]) was 1.88 and the Activity [17] was “Non-Toxic”. For the same compound, the MRT inf [18] was 3.25 h, the Activity [19] was “Non-Toxic” and the bioavailability [20] was 63.4%. The AUC(0-inf) [21] was 4070 ng·h/mL, the Activity [22] was “Toxic” and the Tmax [23] was 1.02 min. It also gave a Cmax [24] of 972 ng/mL, a Tmax [25] of 1.5 h and an Activity ([6]; 10 µM) of 89.8%. It also gave an AUC(0-t) at 24 h [26] of 3670 ng·h/mL, a clearance [27] of 29.5 mL/min/kg and a Ki (Glutamate NMDA receptor) of 3.26 nM. It also gave an Activity ([7]; 1 µM) of 78.45%, a half-life [28] of 1.73 h and an AUC(0-inf) [29] of 1580 ng·h/mL. The half-life [30] was 1.88 h, the Activity [31] was “Non-Toxic” and the Activity [32] was “Non-Toxic”. The Activity [33] was “Toxic”, the Activity (Rattus norvegicus [8]) was 16.08% and the AUC(0-t) at 24 h [34] was 1450 ng·h/mL. For the same compound, the Activity [35] was “Non-Toxic”, the Activity ([9]; 0.1 µM) was 60.14% and the Activity [36] was “Non-Toxic”.

For O=C1OC(CCCN2CCN(Cc3ccc(C(F)(F)F)cc3)CC2)c2ccccc21 (racemic) [listing 2 of 2 here], the inhibition [1] was 12%, the inhibition [2] was 10.3% and the inhibition [3] was 26.6%. For the same compound, the inhibition [4] was 75.4%.

O=C1OC(CCCN2CCc3sccc3C2)c2ccccc21 (stereo unspecified) gave an Activity [6] of 66.52%, an Activity [7] of 61.1% and an Activity [9] of 49.39%.

With O=C1OC(CCCN2CCN(Cc3ccc(Cl)cc3)CC2)c2ccccc21 (stereo unspecified) the Activity [6] was 60.33%, the Activity [7] was 54.83% and the Activity [9] was 49.49%.

Compound CC(C(O)c1ccc(O)cc1)N1CCC(Cc2ccccc2)CC1 (stereo unspecified) [IFENPRODIL] has an Activity (Rattus norvegicus [5]) of 1.75, an inhibition [1] of 28.8% and an inhibition [2] of 18.1%. The inhibition [3] was 13.1%, the Activity [6] was 85.83% and the Activity [7] was 76.98%. For the same compound, the inhibition [4] was 135%, the Activity (Rattus norvegicus [8]) was 14.35% and the Activity [9] was 65.93%.

O=C1OC(CCCN2CCN(Cc3ccc([N+](=O)[O-])cc3)CC2)c2ccccc21 (stereo unspecified) gave an Activity (Rattus norvegicus [5]) of 1.75, an Activity [6] of 88.35% and a Ki (Glutamate NMDA receptor) of 4.55 nM. It also gave an Activity [7] of 79.64%, an Activity (Rattus norvegicus [8]) of 14.53% and an Activity [9] of 66.55%.
